The text below walks through data of patent US20090326003A1, “PYRAZOLO (3, 4-B) PYRIDINE DERIVATIVES AS PDE4 INHIBITORS” (priority 2006, published 2009).

Structures can show the parent of a compound that is named as a salt.

The target in this experiment is T1, PDE4B (human recombinant) (Homo sapiens, UniProt Q07343).
T1 construct: made in house
T1 sequence (Q07343 1-564 isoform Q07343-2): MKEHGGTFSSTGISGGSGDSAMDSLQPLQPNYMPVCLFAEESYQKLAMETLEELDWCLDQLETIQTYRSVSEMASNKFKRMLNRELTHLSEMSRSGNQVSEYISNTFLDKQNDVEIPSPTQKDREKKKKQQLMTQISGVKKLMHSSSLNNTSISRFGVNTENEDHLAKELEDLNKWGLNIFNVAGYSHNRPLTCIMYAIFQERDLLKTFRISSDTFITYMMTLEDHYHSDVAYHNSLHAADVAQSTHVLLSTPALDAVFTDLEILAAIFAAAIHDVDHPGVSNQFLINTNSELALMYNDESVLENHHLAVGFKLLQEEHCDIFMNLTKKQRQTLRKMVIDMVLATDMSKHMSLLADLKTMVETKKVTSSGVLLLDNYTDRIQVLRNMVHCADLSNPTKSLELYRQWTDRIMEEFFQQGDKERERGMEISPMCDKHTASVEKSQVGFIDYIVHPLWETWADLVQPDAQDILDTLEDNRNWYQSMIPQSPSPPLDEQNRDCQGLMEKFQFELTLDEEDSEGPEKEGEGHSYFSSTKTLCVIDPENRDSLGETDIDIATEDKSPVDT
The experiment is described as follows: PDE4B inhibition, fluorescence polarisation (FP) and/or SPA assay. The class given is biochemical. Particulars: n=1 or average of 2 or more readings, accuracy ±about 0.5 log unit, read-out: PDE4B pIC50 (generally in FP assay) (±about 0.5) (converted). An excerpt: Human recombinant PDE4B, in particular the 2B splice variant thereof (HSPDE4B2B), is disclosed in WO 94/20079 and also M. M. McLaughlin et al., “A low Km, rolipram-sensitive, cAMP-specific phosphodiesterase from human brain: cloning and expression of cDNA, biochemical characterisation of recombinant protein, and tissue distribution of mRNA”, J. Biol. Chem., 1993, 268, 6470-6476. For example, in Example 1 of WO 94/20079, human recombinant PDE4B is described as being expressed in the PDE-deficient yeast Saccharomyces cerevisiae strain GL62, e.g. after induction by addition of 150 uM CuSO4, and 100,000×g supernatant fractions of yeast cell lysates are described for use in the harvesting of PDE4B enzyme.
The ability of compounds to inhibit catalytic activity at PDE4B or 4D (human recombinant), PDE3 (from bovine aorta), PDE5 (human recombinant) or PDE6 (from bovine retina) can optionally be determined by Scintillation Proximity Assay (SPA) in a 96-well format.
Test compounds (as a solution in DMSO, preferably about 2 microliter (ul) volume of DMSO solution) are preincubated at ambient temperature (room temperature, e.g. 19-23° C.) in Wallac Isoplates (code 1450-514) with PDE enzyme in 50 mM Tris-HCl buffer pH 7.5, 8.3 mM MgCl2, 1.7 mM EGTA, 0.05% (w/v) bovine serum albumin for 10-30 minutes (usually 30 minutes). The enzyme concentration is adjusted so that no more than 20% hydrolysis of the substrate defined below occurs in control wells without compound, during the incubation. For the PDE3, PDE4B and PDE4D assays, [5′,8-3H]Adenosine 3′,5′-cyclic phosphate (Amersham Pharmacia Biotech, code TRK.559; or Amersham Biosciences UK Ltd, Pollards Wood, Chalfont St Giles, Buckinghamshire HP8 4SP, UK) is added to give 0.05 uCi per well and about 10 nM final concentration. For the PDE5 and PDE6 assays, [8-^3H]Guanosine 3′,5′-cyclic phosphate (Amersham Pharmacia Biotech, code TRK.392) is added to give 0.05 uCi per well and about 36 nM final concentration. Plates containing assay mixture, preferably approx. 100 ul volume of assay mixture, are mixed on an orbital shaker for 5 minutes and incubated at ambient temperature for 1 hour. Phosphodiesterase SPA beads (Amersham Pharmacia Biotech, code RPNQ 0150) are added (about 1 mg per well) to terminate the assay. Plates are sealed and shaken and allowed to stand at ambient temperature for 35 minutes to 1 hour (preferably 35 minutes) to allow the beads to settle. Bound radioactive product is measured using a WALLAC TRILUX 1450 Microbeta scintillation counter. For inhibition curves, 10 concentrations (e.g. 1.5 nM-30 uM) of each compound are assayed. Curves are analysed using ActivityBase and XLfit (ID Business Solutions Limited, 2 Ocean Court, Surrey Research Park, Guildford, Surrey GU2 7QB, United Kingdom) Results are expressed as pIC50 values.
The ability of compounds to inhibit catalytic activity at PDE4B (human recombinant) or PDE4D (human recombinant) can optionally be determined by IMAP Fluorescence Polarisation (FP) assay (IMAP Explorer kit, available from Molecular Devices Corporation, Sunnydale, Calif., USA; Molecular Devices code: R8062) in 384-well format.
The IMAP FP assay is able to measure PDE activity in an homogenous, non-radioactive assay format. The FP assay uses the ability of immobilised trivalent metal cations, coated onto nanoparticles (tiny beads), to bind the phosphate group of FI-AMP that is produced on the hydrolysis of fluorescein-labelled (FI) cyclic adenosine mono-phosphate (FI-cAMP) to the non-cyclic FI-AMP form. […] Binding of FI-AMP product to the beads (coated with the immobilised trivalent cations) slows the rotation of the bound FI-AMP and leads to an increase in the fluorescence polarisation ratio of parallel to perpendicular light. Inhibition of the PDE reduces/inhibits this signal increase. […]
(In fluorescence polarisation assays a small probe gives low polarisation when free and higher when bound to something large.)
On to `CCc1nc2c(cnn2CC)c(NC2CCN(C(N)=O)CC2)c1CNC(=O)CS(=O)(=O)CC(=O)NCc1c(CC)nc2c(cnn2CC)c1NC1CCN(C(N)=O)CC1` [Example 12, 4,4′-{sulfonylbis[(1-oxo-2,1-ethanediyl)iminomethanediyl(1,6-diethyl-1H-pyrazolo[3,4-b]pyridine-5,4-diyl)imino]}di(1-piperidinecarboxamide) trifluoroacetate], for which the IC50 was 0.0158 to 0.1 nM.

For `CCc1nc2c(cnn2CC)c(NC2CCN(C(N)=O)CC2)c1CNC(=O)Cc1ccc(C(=O)NCc2c(CC)nc3c(cnn3CC)c2NC2CCN(C(N)=O)CC2)cc1` [Example 15, 4-({5-[({[4-({[(4-{[1-(aminocarbonyl)-4-piperidinyl]amino}-1,6-diethyl-1H-pyrazolo[3,4-b]pyridin-5-yl)methyl]amino}carbonyl)phenyl]acetyl}amino)methyl]-1,6-diethyl-1H-pyrazolo[3,4-b]pyridin-4-yl}amino)-1-piperidinecarboxamide trifluoroacetate], the IC50 is 0.0158 to 0.1 nM.

For `CCc1nc2c(cnn2CC)c(NC2CCN(C(N)=O)CC2)c1CNC(=O)CC(C)(C)CC(=O)NCc1c(CC)nc2c(cnn2CC)c1NC1CCN(C(N)=O)CC1` [Example 19, N,N′-bis[(4-{[1-(aminocarbonyl)-4-piperidinyl]amino}-1,6-diethyl-1H-pyrazolo[3,4-b]pyridin-5-yl)methyl]-3,3-dimethylpentanediamide trifluoroacetate], the IC50 is 0.0158 to 0.1 nM. Turning to `CCc1nc2c(cnn2CC)c(NC2CCOCC2)c1CNC(=O)c1ccnc(-c2cc(C(=O)NCc3c(CC)nc4c(cnn4CC)c3NC3CCOCC3)ccn2)c1` [Example 31, N,N′-bis{[1,6-diethyl-4-(tetrahydro-2H-pyran-4-ylamino)-1H-pyrazolo[3,4-b]pyridin-5-yl]methyl}-2,2′-bipyridine-4,4′-dicarboxamide], the IC50 is 0.0158 to 0.1 nM. For `CCc1nc2c(cnn2CC)c(NC2CCOCC2)c1CNC(=O)CCc1ccc(C(=O)NCc2c(CC)nc3c(cnn3CC)c2NC2CCOCC2)cc1` [Example 1, N-{[1,6-diethyl-4-(tetrahydro-2H-pyran-4-ylamino)-1H-pyrazolo[3,4-b]pyridin-5-yl]methyl}-4-[3-({[1,6-diethyl-4-(tetrahydro-2H-pyran-4-ylamino)-1H-pyrazolo[3,4-b]pyridin-5-yl]methyl}amino)-3-oxopropyl]benzamide], the IC50 was 0.0158 to 0.1 nM.

`CCc1nc2c(cnn2CC)c(NC2CCN(C(N)=O)CC2)c1CNC(=O)c1ccc(Cc2ccc(C(=O)NCc3c(CC)nc4c(cnn4CC)c3NC3CCN(C(N)=O)CC3)cc2)cc1` [Example 18, 4,4′-{methanediylbis[benzene-4,1-diyl(oxomethanediyl)iminomethanediyl(1,6-diethyl-1H-pyrazolo[3,4-b]pyridine-5,4-diyl)imino]}di(1-piperidinecarboxamide) trifluoroacetate]: the IC50 was 0.0158 to 0.1 nM. For `CCc1nc2c(cnn2CC)c(NC2CCN(C(N)=O)CC2)c1CNC(=O)COc1ccccc1C(=O)NCc1c(CC)nc2c(cnn2CC)c1NC1CCN(C(N)=O)CC1` [Example 16, 4-[(5-{[({[2-({[(4-{[1-(aminocarbonyl)-4-piperidinyl]amino}-1,6-diethyl-1H-pyrazolo[3,4-b]pyridin-5-yl)methyl]amino}carbonyl)phenyl]oxy}acetyl)amino]methyl}-1,6-diethyl-1H-pyrazolo[3,4-b]pyridin-4-yl)amino]-1-piperidinecarboxamide trifluoroacetate], the IC50 was 0.0158 to 0.1 nM. `CCc1nc2c(cnn2CC)c(NC2CCOCC2)c1CNC(=O)Cc1cccc(CC(=O)NCc2c(CC)nc3c(cnn3CC)c2NC2CCOCC2)c1` [Example 8, 2,2′-benzene-1,3-diylbis(N-{[1,6-diethyl-4-(tetrahydro-2H-pyran-4-ylamino)-1H-pyrazolo[3,4-b]pyridin-5-yl]methyl}acetamide)]: the IC50 was 0.126 to 1 nM.
